Measured values taken from US20250353891A1 (MEDIMMUNE LIMITED, priority 2022, published 2025).
Starred links: 1 amine or outer side, 2 acyl side, 3 side chain; linkers in the order of their positions; H or OH if unused. Non-standard residues stand in square brackets, D forms with d. Residues, ends and D or L forms follow the SMILES beside them. Groups on a side chain read outwards from the residue. *: point of attachment. C20 diacid = O=C(O)CCCCCCCCCCCCCCCCCCC(=O)*; C18 diacid = O=C(O)CCCCCCCCCCCCCCCCC(=O)*; γGlu = O=C(O)[C@H](CCC(=O)[*:2])N[*:1]; αMeF = C[C@](N)(Cc1ccccc1)C(=O)O; AEEA = NCCOCCOCC(=O)O; Aib = CC(C)(N)C(=O)O

Tests used:
[1] = in vivo; conditions: male, C57BL/6, mouse, 10 nmol/kg; for half-life: iv
Source text: Selected test peptides (n=8) were profiled for pharmacokinetic (PK) properties in the mouse after single intravenous (i.v.) or subcutaneous (s.c.) dose. A subset (n=4) meeting the acceptance criteria was subsequently profiled in the dog (single i.v. dose) and non-human primate (single i.v. and s.c. dose). […] Low-binding plasticware containers were used during preparation and sample handling to avoid non-specific binding.
After dosing, PK samples were collected from the dorsal metatarsal vein. Blood of each sample was transferred into plastic micro centrifuge tubes containing EDTA-K2, inverted several times for proper mixing of contents and then placed on wet ice. The blood samples were centrifuged at 4° C. to obtain plasma and stored at −75° C. prior to analysis.
Samples analysis: Samples were analyzed by LC-MS/MS. Calibration standards were injected at the beginning and end of each batch and the determined concentration for each prepared standard was used to construct a calibration curve. Plasma and dose aliquot sample concentrations were determined from the plasma calibration curve.
Data analysis: Plasma concentration data was analyzed by non-compartmental analysis (NCA) using Phoenix Winnonlin v. 8.3.3.33. Linear trapezoidal rule was used for increasing values and log trapezoidal rule was used for decreasing values, applying uniform weighting for lambda_z calculations. Subcutaneous bioavailability was calculated as the ratio AUC(s.c.)0-inf/AUC(i.v.)0-inf. Reported values (Table 18) represent the mean of the individual estimates.

[2] = test system: GLP-1R knockout (KO) mice; assay: Glucose change in GLP-1R knockout mice; type: in vivo, mouse; conditions: GLP-1R KO mice, s.c., 60 min vs 0 min, no somatostatin pretreatment
Outline: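 GLP-1R knockout mice (n=4-8/group, sorted by body weight) were fasted 2 h, and in some studies pretreated with octreotide 10 mg/kg 30 min before peptide injection. Mice were reused up to 3 times with at least 1-week wash-out.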

[3] = Mouse acute food intake study; type: in vivo; conditions: male C57Bl/6 mice, s.c., dose 10 nmol/kg, cumulative food intake at 24 hr vs vehicle
Outline: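 Peptide or vehicle went subcutaneously (5 mL/kg) to 6-8 h-fasted male C57Bl/6 mice shortly before the dark phase, with groups balanced on body weight and 24-hour intake. Cumulative food consumption was derived from 48 h of automated BioDaq monitoring with free food and water access.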

[4] = biological target: human glucagon receptor (hGCGR) (Homo sapiens, UniProt P47871); assay: cAMP production (HTRF) in CHO cells expressing hGCGR; type: cell-based; parameters: expressed in transfected cells; conditions: Table 6, peptides modified at position 17; cAMP in CHO hGCGR cells; geometric mean; read-out: hGluc-R EC50
Chain of human glucagon receptor (hGCGR) (P47871 26-477): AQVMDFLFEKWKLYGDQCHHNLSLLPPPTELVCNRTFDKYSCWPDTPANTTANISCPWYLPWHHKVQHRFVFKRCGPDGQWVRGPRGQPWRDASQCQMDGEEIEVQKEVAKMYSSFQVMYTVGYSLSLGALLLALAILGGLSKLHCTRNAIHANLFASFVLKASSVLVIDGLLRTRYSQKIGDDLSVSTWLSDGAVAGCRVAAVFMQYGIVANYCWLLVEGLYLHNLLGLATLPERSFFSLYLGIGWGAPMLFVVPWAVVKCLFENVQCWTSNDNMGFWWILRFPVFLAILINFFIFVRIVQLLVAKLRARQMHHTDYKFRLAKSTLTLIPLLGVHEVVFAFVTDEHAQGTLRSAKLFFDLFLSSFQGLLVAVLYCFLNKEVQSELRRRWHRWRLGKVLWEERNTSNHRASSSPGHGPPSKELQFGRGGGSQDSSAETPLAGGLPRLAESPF
Outline: (§1)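 Read-out: HTRF cAMP (anti-cAMP cryptate donor, cAMP-d2 acceptor in conjugate/lysis buffer), converted to % Delta F and fitted by 4-parameter logistic for EC50. Cell densities were 1×10^5 cells/mL (hGLP-1R) or 2×10^5 cells/mL (hGCGR). Stimulation lasted 30 min at room temperature.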

[5] = test system: wildtype (WT) mice; assay: Glucose change in wildtype mice; type: in vivo, mouse; conditions: s.c., 60 min vs 0 min, no somatostatin pretreatment
Outline: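 Wildtype mice aged 8-14 weeks, fasted 2 h, sometimes pre-treated with octreotide 10 mg/kg 30 min before peptide injection. Blood glucose by glucometer at -30, 0, 30, 60, 120, 180, 240 and 360 min; n=4-8/group, mice reused up to 3 times with ≥1 week wash-out.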

[6] = biological target: human GLP-1 receptor (hGLP-1R) (Homo sapiens, UniProt P43220); assay: cAMP production (HTRF) in CHO cells expressing hGLP-1R; type: cell-based; parameters: expressed in transfected cells; conditions: for EC50: Table 6, peptides modified at position 17, cAMP in CHO hGLP-1R cells, geometric mean, read-out: hGLP-1R EC50; for % Relative Potency Ratio: Table 6, % GLP-1R activity relative to GLP-1 / % GlucR activity relative to glucagon
Chain of human GLP-1 receptor (hGLP-1R) (P43220 24-463): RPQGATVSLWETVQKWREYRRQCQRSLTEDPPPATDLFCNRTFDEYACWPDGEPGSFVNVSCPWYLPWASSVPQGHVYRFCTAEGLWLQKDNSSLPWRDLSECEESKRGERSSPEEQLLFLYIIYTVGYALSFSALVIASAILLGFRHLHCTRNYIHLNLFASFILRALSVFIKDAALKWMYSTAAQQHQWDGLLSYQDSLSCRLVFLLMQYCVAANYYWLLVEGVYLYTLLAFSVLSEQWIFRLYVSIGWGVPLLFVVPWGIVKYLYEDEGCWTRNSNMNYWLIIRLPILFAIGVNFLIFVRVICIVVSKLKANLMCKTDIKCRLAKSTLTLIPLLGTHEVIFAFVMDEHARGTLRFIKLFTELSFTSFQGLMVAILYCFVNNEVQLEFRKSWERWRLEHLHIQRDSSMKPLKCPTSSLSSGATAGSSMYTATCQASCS
Outline: as §1

bioavailability [1]	half-life [1]	EC50 [4]	EC50 [6]	% Relative Potency Ratio [6]	SMILES	GLP-1R KO % glucose change - 60 min ([2]; 10 nmol/kg)	GLP-1R KO % glucose change - 60 min ([2]; 30 nmol/kg)	24 hr % Vehicle Food Intake [3]	WT % glucose change 60 min ([5]; 10 nmol/kg)	WT % glucose change 60 min ([5]; 30 nmol/kg)
102%	6.4 h	0.0464 nM	0.0227 nM	4.0	CC(C)C[C@H](NC(=O)[C@H](Cc1c[nH]c2ccccc12)NC(=O)[C@H](CCCNC(=N)N)NC(=O)[C@@H](NC(=O)[C@H](Cc1ccccc1)NC(=O)[C@H](CC(=O)O)NC(=O)[C@H](CCC(N)=O)NC(=O)[C@H](C)NC(=O)[C@H](CCCNC(=N)N)NC(=O)[C@H](CCCCNC(=O)COCCOCCNC(=O)COCCOCCNC(=O)CC[C@H](NC(=O)CCCCCCCCCCCCCCCCC(=O)O)C(=O)O)NC(=O)[C@@H](NC(=O)[C@H](CC(=O)O)NC(=O)[C@H](CC(C)C)NC(=O)[C@](C)(Cc1ccccc1)NC(=O)[C@H](CCCCN)NC(=O)[C@H](CO)NC(=O)[C@@H](NC(=O)[C@H](CC(=O)O)NC(=O)[C@H](CO)NC(=O)[C@@H](NC(=O)[C@H](Cc1ccccc1)NC(=O)[C@@H](NC(=O)CNC(=O)[C@H](CCC(N)=O)NC(=O)C(C)(C)NC(=O)[C@@H](N)Cc1c[nH]cn1)[C@@H](C)O)[C@@H](C)O)C(C)C)[C@@H](C)O)C(C)C)C(=O)N[C@@H](CC(C)C)C(=O)N[C@@H](CCC(=O)O)C(=O)NC(C)(C)C(=O)NCC(=O)O [Peptide 140] (H-H[Aib]QGTFTSDVSK[αMeF]LDTK([AEEA-AEEA-γGlu-C18 diacid])RAQDFVRWLLE[Aib]G-OH; N-terminus assumed)	46.2%	59.8%	65.4%	−32.1%	−29.0%
49%	5.7 h	0.0369 nM	0.0231 nM	3.2	CC(C)C[C@H](NC(=O)[C@H](Cc1c[nH]c2ccccc12)NC(=O)[C@H](CCCNC(=N)N)NC(=O)[C@@H](NC(=O)[C@H](Cc1ccccc1)NC(=O)[C@H](CC(=O)O)NC(=O)[C@H](CCC(N)=O)NC(=O)[C@H](C)NC(=O)[C@H](CCCNC(=N)N)NC(=O)[C@H](CCCCNC(=O)COCCOCCNC(=O)COCCOCCNC(=O)CC[C@H](NC(=O)CCCCCCCCCCCCCCCCC(=O)O)C(=O)O)NC(=O)[C@H](CCCCN)NC(=O)[C@H](CC(=O)O)NC(=O)[C@H](CC(C)C)NC(=O)[C@](C)(Cc1ccccc1)NC(=O)[C@H](CCCCN)NC(=O)[C@H](CO)NC(=O)[C@@H](NC(=O)[C@H](CC(=O)O)NC(=O)[C@H](CO)NC(=O)[C@@H](NC(=O)[C@H](Cc1ccccc1)NC(=O)[C@@H](NC(=O)CNC(=O)[C@H](CCC(N)=O)NC(=O)C(C)(C)NC(=O)[C@@H](N)Cc1c[nH]cn1)[C@@H](C)O)[C@@H](C)O)C(C)C)C(C)C)C(=O)N[C@@H](CC(C)C)C(=O)NC(C)(C)C(=O)N[C@@H](CCC(=O)O)C(N)=O [Peptide 420] (H-H[Aib]QGTFTSDVSK[αMeF]LDKK([AEEA-AEEA-γGlu-C18 diacid])RAQDFVRWLL[Aib]E-NH2; N-terminus assumed)					
83%	2.9 h	0.0111 nM	0.00763 nM	2.9	CC(C)C[C@H](NC(=O)[C@H](Cc1c[nH]c2ccccc12)NC(=O)[C@H](CCC(N)=O)NC(=O)[C@@H](NC(=O)[C@H](Cc1ccccc1)NC(=O)[C@H](CC(=O)O)NC(=O)[C@H](CCCNC(=N)N)NC(=O)[C@H](C)NC(=O)[C@H](CCCNC(=N)N)NC(=O)[C@H](CCCCNC(=O)COCCOCCNC(=O)COCCOCCNC(=O)CC[C@H](NC(=O)CCCCCCCCCCCCCCCCC(=O)O)C(=O)O)NC(=O)[C@H](CCCCN)NC(=O)[C@H](CC(=O)O)NC(=O)[C@H](CC(C)C)NC(=O)[C@](C)(Cc1ccccc1)NC(=O)[C@H](CCCCN)NC(=O)[C@H](CO)NC(=O)[C@@H](NC(=O)[C@H](CC(=O)O)NC(=O)[C@H](CO)NC(=O)[C@@H](NC(=O)[C@H](Cc1ccccc1)NC(=O)[C@@H](NC(=O)CNC(=O)[C@H](CCC(N)=O)NC(=O)C(C)(C)NC(=O)[C@@H](N)Cc1c[nH]cn1)[C@@H](C)O)[C@@H](C)O)C(C)C)C(C)C)C(=O)N[C@@H](CC(C)C)C(=O)NC(C)(C)C(=O)N[C@@H](CCC(=O)O)C(N)=O [Peptide 472] (H-H[Aib]QGTFTSDVSK[αMeF]LDKK([AEEA-AEEA-γGlu-C18 diacid])RARDFVQWLL[Aib]E-NH2; N-terminus assumed)					
50%	8.9 h	0.117 nM	0.0541 nM	4.3	CC(C)C[C@H](NC(=O)[C@H](CC(C)C)NC(=O)[C@H](Cc1c[nH]c2ccccc12)NC(=O)[C@H](CCCNC(=N)N)NC(=O)[C@@H](NC(=O)[C@H](Cc1ccccc1)NC(=O)[C@H](CC(=O)O)NC(=O)[C@H](CCC(N)=O)NC(=O)[C@H](C)NC(=O)[C@H](CCCNC(=N)N)NC(=O)[C@H](CCCCNC(=O)COCCOCCNC(=O)COCCOCCNC(=O)CC[C@H](NC(=O)CCCCCCCCCCCCCCCCCCC(=O)O)C(=O)O)NC(=O)[C@@H](NC(=O)[C@H](CC(=O)O)NC(=O)[C@H](CC(C)C)NC(=O)[C@](C)(Cc1ccccc1)NC(=O)[C@H](CCCCN)NC(=O)[C@H](CO)NC(=O)[C@@H](NC(=O)[C@H](CC(=O)O)NC(=O)[C@H](CO)NC(=O)[C@@H](NC(=O)[C@H](Cc1ccccc1)NC(=O)[C@@H](NC(=O)CNC(=O)[C@H](CCC(N)=O)NC(=O)C(C)(C)NC(=O)[C@@H](N)Cc1c[nH]cn1)[C@@H](C)O)[C@@H](C)O)C(C)C)[C@@H](C)O)C(C)C)C(=O)N[C@@H](C)C(=O)NC(C)(C)C(=O)NCC(N)=O [Peptide 477] (H-H[Aib]QGTFTSDVSK[αMeF]LDTK([AEEA-AEEA-γGlu-C20 diacid])RAQDFVRWLLA[Aib]G-NH2; N-terminus assumed)					
